Experimental data: US8192962B2, “Processes for detecting toxic substances” (Daikin Industries, Ltd., priority 2001, dated 2012)

System: Metabolism protein genes
Test: DNA chip mRNA expression in yeast, metabolism protein genes (Table 7)
Assay type: cell-based, Saccharomyces cerevisiae S288C
Procedure, shortened: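 Chemical exposure: 2 h, log-phase S. cerevisiae S288C, YPD, 25° C., dose set to inhibit growth without death. Profiling: mRNA labeled by reverse transcription with Cy3- or Cy5-dUTP, hybridized to whole-genome array. Output: fluorescence ratio against untreated culture.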

[Cl][Pb][Cl] [(4), PbCl2]
The level of expressed mRNA in the presence of chemical substance/The level of expressed mRNA in the absence of chemical substance (yeast gene YJR155W): 2.5 | The level of expressed mRNA in the presence of chemical substance/The level of expressed mRNA in the absence of chemical substance (yeast gene YKL035W): 1.2 | level of expressed mRNA in the presence/in the absence of chemical substance (yeast gene YKL060C): 1.0 | The level of expressed mRNA in the presence of chemical substance/The level of expressed mRNA in the absence of chemical substance (yeast gene YKL091C): 2.6 | The level of expressed mRNA in the presence of chemical substance/The level of expressed mRNA in the absence of chemical substance (yeast gene YKL104C): 1.2 | level of expressed mRNA in the presence/in the absence of chemical substance (yeast gene YKL148C): 0.7 | The level of expressed mRNA in the presence of chemical substance/The level of expressed mRNA in the absence of chemical substance (yeast gene YKL152C): 0.9 | level of expressed mRNA in the presence/in the absence of chemical substance (yeast gene YKL157W): 1.3 | The level of expressed mRNA in the presence of chemical substance/The level of expressed mRNA in the absence of chemical substance (yeast gene YKL213C): 1.3 | The level of expressed mRNA in the presence of chemical substance/The level of expressed mRNA in the absence of chemical substance (yeast gene YKL215C): 0.8 | level of expressed mRNA in the presence/in the absence of chemical substance (yeast gene YKR034W): 4.7 | The level of expressed mRNA in the presence of chemical substance/The level of expressed mRNA in the absence of chemical substance (yeast gene YLL058W): 0.9 | level of expressed mRNA in the presence/in the absence of chemical substance (yeast gene YLR006C): 6.2 | level of expressed mRNA in the presence/in the absence of chemical substance (yeast gene YLR044C): 0.9 | level of expressed mRNA in the presence/in the absence of chemical substance (yeast gene YLR056W): 0.8 | level of expressed mRNA in the presence/in the absence of chemical substance (yeast gene YLR058C): 2.6 | level of expressed mRNA in the presence/in the absence of chemical substance (yeast gene YLR081W): 3.6 | level of expressed mRNA in the presence/in the absence of chemical substance (yeast gene YLR089C): 0.9 | The level of expressed mRNA in the presence of chemical substance/The level of expressed mRNA in the absence of chemical substance (yeast gene YLR180W): 1.0 | The level of expressed mRNA in the presence of chemical substance/The level of expressed mRNA in the absence of chemical substance (yeast gene YLR273C): 2.4 | level of expressed mRNA in the presence/in the absence of chemical substance (yeast gene YLR284C): 1.9 | The level of expressed mRNA in the presence of chemical substance/The level of expressed mRNA in the absence of chemical substance (yeast gene YLR299W): 1.3 | The level of expressed mRNA in the presence of chemical substance/The level of expressed mRNA in the absence of chemical substance (yeast gene YLR300W): 1.0 | level of expressed mRNA in the presence/in the absence of chemical substance (yeast gene YLR304C): 0.7 | The level of expressed mRNA in the presence of chemical substance/The level of expressed mRNA in the absence of chemical substance (yeast gene YLR307W): 3.3 | The level of expressed mRNA in the presence of chemical substance/The level of expressed mRNA in the absence of chemical substance (yeast gene YLR348C): 1.2 | level of expressed mRNA in the presence/in the absence of chemical substance (yeast gene YLR354C): 1.5 | level of expressed mRNA in the presence/in the absence of chemical substance (yeast gene YLR372W): 0.8 | level of expressed mRNA in the presence/in the absence of chemical substance (yeast gene YML022W): 1.1 | The level of expressed mRNA in the presence of chemical substance/The level of expressed mRNA in the absence of chemical substance (yeast gene YML054C): 3.4 | The level of expressed mRNA in the presence of chemical substance/The level of expressed mRNA in the absence of chemical substance (yeast gene YML070W): 1.9 | The level of expressed mRNA in the presence of chemical substance/The level of expressed mRNA in the absence of chemical substance (yeast gene YML100W): 1.4 | The level of expressed mRNA in the presence of chemical substance/The level of expressed mRNA in the absence of chemical substance (yeast gene YMR008C): 1.0 | level of expressed mRNA in the presence/in the absence of chemical substance (yeast gene YMR011W): 5.5 | level of expressed mRNA in the presence/in the absence of chemical substance (yeast gene YMR015C): 0.9 | The level of expressed mRNA in the presence of chemical substance/The level of expressed mRNA in the absence of chemical substance (yeast gene YMR020W): 1.7 | level of expressed mRNA in the presence/in the absence of chemical substance (yeast gene YMR083W): 1.1 | The level of expressed mRNA in the presence of chemical substance/The level of expressed mRNA in the absence of chemical substance (yeast gene YMR105C): 4.2 | The level of expressed mRNA in the presence of chemical substance/The level of expressed mRNA in the absence of chemical substance (yeast gene YMR189W): 2.8 | level of expressed mRNA in the presence/in the absence of chemical substance (yeast gene YMR205C): 0.8 | level of expressed mRNA in the presence/in the absence of chemical substance (yeast gene YMR261C): 0.8 | The level of expressed mRNA in the presence of chemical substance/The level of expressed mRNA in the absence of chemical substance (yeast gene YMR271C): 2.0 | The level of expressed mRNA in the presence of chemical substance/The level of expressed mRNA in the absence of chemical substance (yeast gene YMR296C): 2.6 | level of expressed mRNA in the presence/in the absence of chemical substance (yeast gene YMR323W): 1.1 | The level of expressed mRNA in the presence of chemical substance/The level of expressed mRNA in the absence of chemical substance (yeast gene YNL012W): 0.8 | level of expressed mRNA in the presence/in the absence of chemical substance (yeast gene YNL025C): 12.8 | The level of expressed mRNA in the presence of chemical substance/The level of expressed mRNA in the absence of chemical substance (yeast gene YNL045W): 1.3 | The level of expressed mRNA in the presence of chemical substance/The level of expressed mRNA in the absence of chemical substance (yeast gene YNL104C): 0.9 | The level of expressed mRNA in the presence of chemical substance/The level of expressed mRNA in the absence of chemical substance (yeast gene YNL106C): 1.5 | The level of expressed mRNA in the presence of chemical substance/The level of expressed mRNA in the absence of chemical substance (yeast gene YNL169C): 1.2 | level of expressed mRNA in the presence/in the absence of chemical substance (yeast gene YNL192W): 1.6 | The level of expressed mRNA in the presence of chemical substance/The level of expressed mRNA in the absence of chemical substance (yeast gene YNL231C): 0.5 | The level of expressed mRNA in the presence of chemical substance/The level of expressed mRNA in the absence of chemical substance (yeast gene YNL322C): 0.8 | The level of expressed mRNA in the presence of chemical substance/The level of expressed mRNA in the absence of chemical substance (yeast gene YNL331C): 1.0 | The level of expressed mRNA in the presence of chemical substance/The level of expressed mRNA in the absence of chemical substance (yeast gene YNL332W): 2.0 | The level of expressed mRNA in the presence of chemical substance/The level of expressed mRNA in the absence of chemical substance (yeast gene YNR019W): 1.2 | The level of expressed mRNA in the presence of chemical substance/The level of expressed mRNA in the absence of chemical substance (yeast gene YNR033W): 1.0 | The level of expressed mRNA in the presence of chemical substance/The level of expressed mRNA in the absence of chemical substance (yeast gene YNR059W): 1.4 | The level of expressed mRNA in the presence of chemical substance/The level of expressed mRNA in the absence of chemical substance (yeast gene YOL058W): 0.9 | level of expressed mRNA in the presence/in the absence of chemical substance (yeast gene YOL086C): 1.1 | level of expressed mRNA in the presence/in the absence of chemical substance (yeast gene YOL108C): 1.9 | level of expressed mRNA in the presence/in the absence of chemical substance (yeast gene YOL116W): 2.8 | The level of expressed mRNA in the presence of chemical substance/The level of expressed mRNA in the absence of chemical substance (yeast gene YOL126C): 1.6 | The level of expressed mRNA in the presence of chemical substance/The level of expressed mRNA in the absence of chemical substance (yeast gene YOL153C): 3.9 | level of expressed mRNA in the presence/in the absence of chemical substance (yeast gene YOL156W): 1.1 | The level of expressed mRNA in the presence of chemical substance/The level of expressed mRNA in the absence of chemical substance (yeast gene YOL165C): 0.9 | level of expressed mRNA in the presence/in the absence of chemical substance (yeast gene YOR002W): 0.9 | level of expressed mRNA in the presence/in the absence of chemical substance (yeast gene YOR085W): 1.0 | The level of expressed mRNA in the presence of chemical substance/The level of expressed mRNA in the absence of chemical substance (yeast gene YOR099W): 1.3 | level of expressed mRNA in the presence/in the absence of chemical substance (yeast gene YOR103C): 1.8 | level of expressed mRNA in the presence/in the absence of chemical substance (yeast gene YOR108W): 0.6 | level of expressed mRNA in the presence/in the absence of chemical substance (yeast gene YOR128C): 2.1 | The level of expressed mRNA in the presence of chemical substance/The level of expressed mRNA in the absence of chemical substance (yeast gene YOR130C): 1.0 | level of expressed mRNA in the presence/in the absence of chemical substance (yeast gene YOR142W): 1.0 | level of expressed mRNA in the presence/in the absence of chemical substance (yeast gene YOR176W): 0.9 | level of expressed mRNA in the presence/in the absence of chemical substance (yeast gene YOR178C): 2.3 | level of expressed mRNA in the presence/in the absence of chemical substance (yeast gene YOR251C): 1.8 | The level of expressed mRNA in the presence of chemical substance/The level of expressed mRNA in the absence of chemical substance (yeast gene YOR336W): 1.0 | The level of expressed mRNA in the presence of chemical substance/The level of expressed mRNA in the absence of chemical substance (yeast gene YOR347C): 2.2 | level of expressed mRNA in the presence/in the absence of chemical substance (yeast gene YOR348C): 2.0 | The level of expressed mRNA in the presence of chemical substance/The level of expressed mRNA in the absence of chemical substance (yeast gene YPL017C): 1.0 | level of expressed mRNA in the presence/in the absence of chemical substance (yeast gene YPL028W): 0.9 | level of expressed mRNA in the presence/in the absence of chemical substance (yeast gene YPL057C): 3.1 | level of expressed mRNA in the presence/in the absence of chemical substance (yeast gene YPL135W): 1.2 | level of expressed mRNA in the presence/in the absence of chemical substance (yeast gene YPL148C): 2.3 | The level of expressed mRNA in the presence of chemical substance/The level of expressed mRNA in the absence of chemical substance (yeast gene YPR026W): 1.3 | level of expressed mRNA in the presence/in the absence of chemical substance (yeast gene YPR113W): 1.3 | level of expressed mRNA in the presence/in the absence of chemical substance (yeast gene YPR165W): 1.0 | The level of expressed mRNA in the presence of chemical substance/The level of expressed mRNA in the absence of chemical substance (yeast gene YPR167C): 0.8 | level of expressed mRNA in the presence/in the absence of chemical substance (yeast gene YPR183W): 0.8
